Tested on: transcriptional activity of NRF2 (ARE activity)
Test: miRNA library screening using ARE-luciferase reporter system
Format: cell-based, human
Conditions: HeLa cells, 20 nmol/L miRNA, 48 hours after transfection, luciferase activity per living cell
Description: The luciferase reporter plasmid was prepared by inserting a human NQO-1 promoter region 5′-[…]-3′ (SEQ ID NO: 19) including an antioxidant response element (ARE) into an Mlu1/Xho1 site in pGL3 vector (Promega). Specifically, a pair of synthetic oligonucleotides complementary with each other shown in Table 2 (upper; SEQ ID NO: 20, lower; SEQ ID NO: 21) were annealed, to thereby form a double-stranded DNA, and a double-stranded DNA having cohesive ends complementary to the Mlu1/Xho1 site was prepared by use of Mlu1 and Xho1. The thus-produced double-stranded DNA fragment was inserted into the Mlu1/Xho1 site, to thereby yield a recombinant pGL3 (reporter plasmid) of interest.
Firstly, the reporter plasmid was transiently transfected into HeLa cells (1×10^7 cells/dish) in a 10 cm dish. 24 hours after transfection, the cells (1×10^4 cells/well) were seeded on a 96-well plate, and the next day, 20 nmol/L of each of the 470 double-stranded RNA fragments, derived from Pre-miRNA precursor library-Human V3 (Ambion) or control miRNA was transfected. After two days, firefly luciferase activity was measured by means of a microplate reader (ARVOmx; Perkinelmer) using Bright-Glo Luciferase Assay System (Promega). At the same time, living cells were detected through CV staining assay. ARE activity was calculated from the luciferase activity per living cell.
For the screening of 470 double-stranded RNAs, HeLa cells were sequentially transfected with each miRNA together with the reporter plasmid, and then the ARE activity in each transfected cell was calculated as the luciferase activity per living cell, as measured by the crystal violet (CV) staining assay. Briefly, the ARE-luciferase reporter plasmid and each miRNA from the library were sequentially transfected into HeLa cells, and after 48 hours, luciferase activity or the number of living cells was measured using the Bright-GIo Luciferase Assay System or crystal violet (CV) staining assay, respectively. The ARE activity for each miRNA-transfected cell was calculated as the luciferase activity per living cell.
The ARE activity relative to that in control-miRNA-transfected cells is indicated on the vertical axis. Eight miRNAs with a relative ratio of 0.5 or less were identified as candidates by this screening system. Also, eight miRNAs with a relative ratio of 1.5 or more were similarly identified as candidates by this screening system.

Substance | ARE activity relative to that in control-miRNA-transfected cells (relative ratio)
hsa-miR-153: low-value miRNA from Pre-miRNA precursor library; mature sequence UUGCAUAGUCACAAAAGUGAUC, SEQ ID NO: 7 (listed as RNA, chemistry not given here; listed as Homo sapiens) | large decrease
hsa-miR-337: low-value miRNA from Pre-miRNA precursor library; mature sequence GAACGGCUUCAUACAGGAGUU, SEQ ID NO: 6 (listed as RNA, chemistry not given here; listed as Homo sapiens) | large decrease
hsa-miR-556: low-value miRNA from Pre-miRNA precursor library; mature sequence GAUGAGCUCAUUGUAAUAUGAG, SEQ ID NO: 8 (listed as RNA, chemistry not given here; listed as Homo sapiens) | large decrease
hsa-miR-639: low-value miRNA from Pre-miRNA precursor library; mature sequence AUCGCUGCGGUUGCGAGCGCUGU, SEQ ID NO: 5 (listed as RNA, chemistry not given here; listed as Homo sapiens) | large decrease

Source: patent publication US10876115B2, “Method for assaying MicroRNA, cancer therapeutic agent, and medical composition containing same for cancer therapy” (National University Corporation Tokyo Medical and Dental …, priority 2013, dated 2020)
